# Data: US20250340543A1, “GPR84 ANTAGONISTS AND USES THEREOF” (Liminal BioSciences Limited, priority 2021, published 2025)
# Biological target: GPR84 (Homo sapiens (Human), UniProt Q9NQS5)
# Test: Gai biosensor BRET assay (GPR84-mediated activation of Gai, antagonist mode against agonist ZQ-16)
# Type: cell-based
# Settings: HEK293 cells, 200 nmol/L GPR84 agonist ZQ-16, read-out: hGPR84 IC50
# Text: Background—The following assays can be used for determination of GPR84 activation in living HEK293 cells. […] The Gai biosensor consists of a Rluc8-tagged Gαi2 subunit, a GFP10-tagged Gγ2 subunit, and an untagged Gβ1. […] Moreover, signaling functions of GPCRs are tightly regulated by endocytosis, the targeting of receptors to endosomes and their sorting to lysosomes or recycling to the plasma membrane. […] Agonist stimulation of GPR84—Rluc8 leads to trafficking of the receptor to EEs, and ensuing increase of the donor concentration relative to the rGFP-FYVE acceptor anchored in the same cellular compartment, and thus results in an increase in BRET signal.
# Plasmids—The cDNA clones for human GPR84 receptor, human Gαi2, Gβ1, and Gγ2 were obtained from the cDNA Resource Center (www.cdna.org). GFP10 (F64L, S147P, S202F and H231L variant of Aequorea victoria Green Fluorescent Protein) gBlocks gene fragments (Integrated DNA Technologies, IA) and linker were inserted in frame at the N-terminus of human Gγ2. Rluc8 (A55T, C124A, S130A, K136R, A143M, M185V, M253L, and S287L variant of the Renilla renformis luciferase) gBlocks gene fragment was inserted with linkers in frame in between residues 91 and 92 of Gαi2 or at the C-terminus of GPR84. The FYVE domain from human endofin (residues Q739 to K806) attached in frame at the C terminus of a humanized Renilla GFP (rGFP), were synthesized as gBlocks gene fragments.
# Bioluminescence Resonance Energy Transfer (BRET) Measurement—HEK293 cells were transfected with GPR84—Rluc8 and rGFP-FYVE for the EEs trafficking biosensor or with GPR84, Gαi2—Rluc8, GFP10-Gγ2, and Gβ1 for the Gai biosensor. The following day, transiently transfected cells were seeded in 96-well white clear bottom microplates coated with poly-D-lysine and left in culture for 24 hours. Cells were washed once with Tyrode's buffer (140 mmol/L NaCl, 1 mmol/L CaCl2, 2.7 mmol/L KCl, 0.49 mmol/L MgCl2, 0.37 mmol/L NaH2PO4, 5.6 mmol/L glucose, 12 mmol/L NaHCO3, and 25 mmol/L HEPES, pH 7.5) before performing assays in Tyrode's buffer. Test compounds were incubated with cells for 5 (Gai) or 15 (EEs) minutes at 37° C. before addition of 200 nmol/L of the GPR84 agonist ZQ-16 (2-(Hexylthio)-6-hydroxy-4(3H)-pyrimidinone) for 5 minutes at room temperature (Gai) or 30 minutes at 37° C. (EEs). The Rluc8 substrate coelenterazine 400A (Prolume, Lakeside, AZ) was added at a final concentration of […] and BRET readings were collected using an Infinite M1000 microplate reader (Tecan, Morrisville, NC). BRET^2 readings between Rluc8 and GFP10 or rGFP were collected by sequential integration of the signals detected in the 370 to 450 nm (Rluc8) and 510 to 540 nm (GFP10, rGFP) windows. The BRET signal was calculated as the ratio of light emitted by acceptor (GFP10, rGFP) over the light emitted by donor (Rluc8). The values were corrected to net BRET by subtracting the background BRET signal obtained in cells transfected with Rluc8 constructs alone. Ligand-promoted net BRET values were calculated by subtracting vehicle-induced net BRET from ligand-induced net BRET.
# Chain of GPR84 (Q9NQS5 whole entry): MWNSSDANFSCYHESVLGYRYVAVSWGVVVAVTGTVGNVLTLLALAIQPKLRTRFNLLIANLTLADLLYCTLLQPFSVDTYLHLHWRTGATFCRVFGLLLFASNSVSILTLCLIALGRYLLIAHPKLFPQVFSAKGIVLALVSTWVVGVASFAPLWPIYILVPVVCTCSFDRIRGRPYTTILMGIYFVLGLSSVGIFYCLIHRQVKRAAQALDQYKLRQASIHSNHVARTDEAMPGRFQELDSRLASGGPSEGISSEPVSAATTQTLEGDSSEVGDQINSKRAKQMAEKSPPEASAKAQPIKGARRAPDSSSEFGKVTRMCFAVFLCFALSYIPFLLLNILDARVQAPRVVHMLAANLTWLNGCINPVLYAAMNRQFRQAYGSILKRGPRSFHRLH
row,SMILES,IC50
1,COc1cc(OCC2COCCO2)cc(-c2ccc(OCc3ccccn3)cc2C)n1 (centres unmarked) [Compound I-37],< 5 µM
2,Cc1cc(OCc2ccncn2)cc(=O)n1[C@H](C)c1ccc(C#CC2CC2)cc1 [Compound I-258],< 5 µM
3,Cc1cc(OCc2ncccc2Cl)cc(=O)n1[C@H](C)c1ccc(C#CC2CC2)cc1 [Compound I-256],< 5 µM
4,CCn1ccnc1COc1cc(C)n([C@H](C)c2ccc(C#CC3CC3)cc2)c(=O)c1 [Compound I-356],< 5 µM
5,CCn1c(-c2ccc(C#CC3CC3)cc2)cc(OCC2COCCO2)cc1=O (centres unmarked) [Compound I-26],10 to 15 µM
6,Cc1cc(OCc2cnnn2C)cc(=O)n1[C@H](C)c1ccc(C#CC2CC2)cc1 [Compound I-359],< 5 µM
7,Cc1cc(OC[C@H]2COCCO2)cc(=O)n1[C@H](C)c1ccc(C#CC2CC2)cc1 (stereo in doubt) [Compound I-7],< 5 µM
8,COc1cc(OCC2CCOCC2)cc(-c2ccc(-c3ccc(C)nc3)cc2C)n1 [Compound I-3],< 5 µM

# Same assay, conditions: compound tested at 2 μM (concentration code A)
row,SMILES,inhibition at 2 µM
1,Cc1cc(OCc2ccncn2)cc(=O)n1[C@H](C)c1ccc(C#CC2CC2)cc1 [Compound I-258],> 75%
2,Cc1cc(OCc2ncccc2Cl)cc(=O)n1[C@H](C)c1ccc(C#CC2CC2)cc1 [Compound I-256],> 75%
3,CCn1ccnc1COc1cc(C)n([C@H](C)c2ccc(C#CC3CC3)cc2)c(=O)c1 [Compound I-356],> 75%
4,Cc1cc(OCc2cocn2)cc(=O)n1[C@H](C)c1ccc(C#CC2CC2)cc1 [Compound I-284],> 75%

# Same assay, conditions: compound tested at 5 μM (concentration code C)
row,SMILES,inhibition at 5 µM
1,Cc1ccc(-c2ccc(-c3ccc4oc(=O)n(CC5CCCCO5)c4c3)cc2)cn1 (centres unmarked) [Compound I-168],< 25%

# Same assay, conditions: compound tested at 10 μM (concentration code D)
row,SMILES,inhibition at 10 µM
1,Cc1cc(C#CC2CC2)ccc1C(C)n1ccc(OC[C@@H]2COCCO2)cc1=O (some centres unmarked) [Compound I-239],< 25%
2,Cc1cc(OCc2ccccn2)ccc1-c1cc(OCC2COc3ncccc3O2)cc(=O)[nH]1 (centres unmarked) [Compound I-48],25 to 50%
3,Cc1cc(OCC2COCCO2)cc(=O)n1C(C)c1ccc(C#CC(C)(C)C)cc1 (centres unmarked) [Compound I-68],< 25%
4,Cc1cc(OCC2COCCO2)cc(=O)n1Cc1cccc(N2CC(C)(C)C2)c1 (centres unmarked) [Compound I-146],< 25%
5,Cc1cc(OCc2cn(C)cn2)cc(=O)n1[C@H](C)c1ccc(C#CC2CC2)cc1 [Compound I-313],> 75%
6,Cc1cc(OCc2ncco2)cc(=O)n1C(C)c1ccc(C#CC2CC2)c(F)c1 (centres unmarked) [Compound I-365],> 75%
7,Cc1cc(OCn2cccn2)cc(=O)n1[C@H](C)c1ccc(C#CC2CC2)cc1 [Compound I-295],> 75%
8,Cc1cc(OCC2COCCO2)cc(=O)n1Cc1cccc(OCc2ccccc2)c1 (centres unmarked) [Compound I-82],< 25%
9,Cn1c(-c2ccc(C#CC3CC3)cc2)cc(=O)n(C[C@H]2COCCO2)c1=O [Compound I-122],< 25%
10,Cc1cc(OCC2COCCO2)cc(=O)n1C(C)c1ccc(C#CCNc2ccccc2)cc1 (centres unmarked) [Compound I-117],< 25%
11,Cc1cc(OCC2COCCO2)cc(=O)n1Cc1cccc(OCC(F)(F)F)c1 (centres unmarked) [Compound I-114],< 25%
12,Cc1cc(OCC2COc3ccccc3O2)cc(=O)n1C(C)c1ccc(C#CC2CC2)cc1 (centres unmarked) [Compound I-65],< 25%
13,Cc1cc(OCn2ccnc2)cc(=O)n1[C@H](C)c1ccc(C#CC2CC2)cc1 [Compound I-308],> 75%
14,C#Cc1ccc(C(C)n2c(C)cc(OCc3ncccn3)cc2=O)cc1 (centres unmarked) [Compound I-353],< 25%
15,Cc1cc(OCc2ncccn2)cc(=O)n1Cc1cc(C#CC2CC2)ccn1 [Compound I-266],< 25%
16,Cc1cc(OCc2ncccn2)cc(=O)n1[C@H](C)c1ccc(-c2ccccc2)cc1 [Compound I-344],< 25%
17,Cc1cc([C@@H](C)n2c(C)cc(OCc3ncccn3)cc2=O)ccc1C#CC1CC1 [Compound I-373],> 75%
18,Cc1cc(OC[C@@H]2COCCO2)cc(=O)n1[C@H](C)c1ccc(C#CC2CC2)cc1 [Compound I-6],> 75%

row,SMILES,inhibition at 10 µM
1,Cc1cc(C#CC2CC2)cnc1C(C)n1ccc(OCc2ncccn2)cc1=O (centres unmarked) [Compound I-254],< 25%
2,Cc1cc(OCc2cnnn2C)cc(=O)n1[C@H](C)c1ccc(C#CC2CC2)cc1 [Compound I-359],> 75%
3,O=C(CC1CCOc2ccccc21)N1Cc2ccc(C#CC3CC3)cc2C1 (centres unmarked) [Compound I-217],< 25%
4,Cc1cc(OC[C@H]2COCCO2)cc(=O)n1[C@H](C)c1ccc(C#CC2CC2)cc1 (stereo in doubt) [Compound I-7],> 75%
5,Cc1cc(OCc2ncccn2)cc(=O)n1C(C)c1ccc(OCC(F)(F)F)cc1 (centres unmarked) [Compound I-275],< 25%
6,Cc1cc(OCc2ncccn2)cc(=O)n1C(C)c1cnc(C#CC2CC2)nc1 (centres unmarked) [Compound I-340],< 25%
7,Cc1cc(OCc2c(F)ccc[n+]2[O-])cc(=O)n1[C@H](C)c1ccc(C#CC2CC2)cc1 [Compound I-369],> 75%
8,Cc1cc(OCC2COCCO2)cc(=O)n1[C@H](CO)c1ccc(C#CC2CC2)cc1 (stereo in doubt) [Compound I-147],25 to 50%
9,Cc1cc(OCc2ncccn2)cc(=O)n1Cc1cc(C#CC2CC2)ccc1F [Compound I-268],< 25%
10,Cc1cc(OCc2ncccn2)cc(=O)n1Cc1cccc(OCC(F)(F)F)c1 [Compound I-262],< 25%
11,O=c1cc(OCC2COCCO2)nc(-c2ccc(C#CC3CC3)cc2)[nH]1 (centres unmarked) [Compound I-119],< 25%
12,Cc1cc(OCc2ncccn2)cc(=O)n1Cc1cccc(C#CC2CC2)c1 [Compound I-267],< 25%
13,CCCCCc1ccc([C@@H](C)n2c(C)cc(OCc3ncccn3)cc2=O)cc1 [Compound I-309],< 25%
14,Cc1cc(OCC2COCCO2)cc(=O)n1Cc1ccc(C#CCNCc2ccccc2)cc1 (centres unmarked) [Compound I-123],< 25%
15,Cc1cc(OC[C@@H]2COCCO2)cc(=O)n1Cc1cccc(C#CC2CC2)c1 [Compound I-233],25 to 50%
16,Cc1cc(OCc2ncccn2)cc(=O)n1[C@H](C)c1ccc(C2CC2)cc1 [Compound I-322],< 25%
17,Cc1cc(OC[C@H]2COCCO2)cc(=O)n1Cc1ccc(N2CC(C)(C)C2)cc1 [Compound I-116],< 25%

# Same assay, conditions: compound tested at 25 μM (concentration code G)
row,SMILES,inhibition at 25 µM
1,COc1cc(OCC2COCCO2)cc(-c2ccc(OCc3ccccn3)cc2C)n1 (centres unmarked) [Compound I-37],25 to 50%
2,FC(F)(F)COc1ccc(-c2cccc(OCC3CCCCO3)n2)cc1 (centres unmarked) [Compound I-129],< 25%
3,"Cc1ccc(-c2ccc(-c3nc(OCC4COCCO4)cc(=O)[nH]3)cc2)cn1 (centres unmarked) [Compound I-139, 6-((1,4-dioxan-2-yl)methoxy)-2-(4-(6-methylpyridin-3-yl)phenyl)pyrimidin-4(3H)-one]",< 25%
4,FC(F)(F)COc1ccc(-c2cncc(OCC3COCCO3)c2)cc1 (centres unmarked) [Compound I-53],25 to 50%
5,C(#CC1CC1)c1ccc(-c2cc(OCC3CCCCO3)cnn2)cc1 (centres unmarked) [Compound I-135],< 25%
6,C(#CC1CC1)c1ccc(-c2ccnc(OCC3CCCCO3)n2)cc1 (centres unmarked) [Compound I-128],< 25%
7,O=c1oc2ccc(-c3ccc(C#CC4CC4)cc3)cc2n1CC1COCCO1 (centres unmarked) [Compound I-169],< 25%
8,CCn1c(-c2ccc(C#CC3CC3)cc2)cc(OCC2COCCO2)cc1=O (centres unmarked) [Compound I-26],50 to 75%
9,COc1cc(OCC2COCCO2)cc(-c2ccc(C#CC3CC3)cc2)n1 (centres unmarked) [Compound I-40],< 25%
10,COc1cc(OCC2CCCOC2)cc(-c2ccc(-c3ccc(C)nc3)cc2C)n1 (centres unmarked) [Compound I-45],25 to 50%
11,CN1CCN(c2cc(OCC3COCCO3)nc(=O)n2C)CC1 (centres unmarked) [Compound I-137],< 25%
12,COc1cc(NC(=O)C2COCCO2)cc(-c2ccc(C#CC3CC3)cc2)n1 (centres unmarked) [Compound I-98],< 25%
13,FC(F)(F)COc1ccc(-c2cc(OCC3COCCO3)cc3c2OCCO3)cc1 (centres unmarked) [Compound I-155],< 25%
14,COc1cc(OCC2COCCO2)nc(-c2ccc(OCC(F)(F)F)cc2C)c1C (centres unmarked) [Compound I-112],< 25%
15,[O-][n+]1cc(OCC2COCCO2)cc(-c2ccc(OCC(F)(F)F)cc2)c1 (centres unmarked) [Compound I-59],25 to 50%
16,O=C(CC1CCCCO1)N1Cc2ccc(C#CC3CC3)cc2C1 (centres unmarked) [Compound I-186],25 to 50%
17,FC(F)(F)COc1cccc(-c2cccc(OCC3COCCO3)n2)c1 (centres unmarked) [Compound I-111],< 25%
